Results reported in ChEMBL document CHEMBL1201862, “PubChem BioAssay data set” (2004).
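48-hour exposure; five concentrations; linearly interpolated endpoints. GI50 is the concentration that inhibits growth by half.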 Active and inactive are the calls of the source. No stated cut-off is given here; in the data, active = GI50 up to about 1.1 µM and inactive = higher.

Experiments:
Assay in all cases: inhibition of tumour cell growth, NCI panel, 48 h
[1] = test system: KM12
[2] = test system: OVCAR-8
[3] = test system: SN12C
[4] = test system: SF-295
[5] = test system: IGROV-1
[6] = test system: A549
[7] = test system: OVCAR-5
[8] = test system: HT-29
[9] = test system: NCI-H460
[10] = test system: HOP-62
[11] = test system: SK-MEL-2
[12] = test system: SNB-19
[13] = test system: SW-620
[14] = test system: 786-0
[15] = test system: SK-MEL-28
[16] = test system: HL-60
[17] = test system: SF-268
[18] = test system: SR
[19] = test system: RXF 393
[20] = test system: OVCAR-3

Measured: GI50

N/N=c1\c2ccccc2c2ccc3c4ccccc4/c(=N\N)c3c12
inactive: [1] > 100 µM | [2] > 100 µM | [3] > 100 µM | [4] > 100 µM | [5] > 100 µM | [6] > 100 µM | [7] > 100 µM | [8] > 100 µM | [9] > 100 µM | [10] > 100 µM | [11] > 100 µM | [12] > 100 µM | [13] > 100 µM | [14] > 100 µM | [15] > 100 µM | [16] > 100 µM | [17] > 100 µM | [18] 25.7 µM | [19] > 100 µM

CO/C(=N\N=C\c1ccc(Cl)cc1)c1ccncc1
inactive: [1] > 100 µM | [2] > 100 µM | [3] > 100 µM | [4] > 100 µM | [5] > 100 µM | [6] > 100 µM | [7] > 100 µM | [8] > 100 µM | [9] > 100 µM | [10] > 100 µM | [11] > 100 µM | [12] > 100 µM | [13] > 100 µM | [15] > 100 µM | [16] > 100 µM | [17] > 100 µM | [20] > 100 µM | [18] > 100 µM | [19] > 100 µM

CC1CCN(c2cc(-c3cc4ccccc4o3)oc(=O)c2C#N)CC1
inactive: [1] > 100 µM | [2] > 100 µM | [3] > 100 µM | [4] 68.9 µM | [5] > 100 µM | [6] > 100 µM | [7] > 100 µM | [8] > 100 µM | [9] > 100 µM | [11] > 100 µM | [12] > 100 µM | [13] > 100 µM | [15] > 100 µM | [16] 65.8 µM | [17] > 100 µM | [18] > 100 µM | [19] 45.7 µM

CCc1cc(Cc2cc(CC)c(NC(=O)C(=O)CC(=O)c3sc(-c4cccnc4)nc3C)c(CC)c2)cc(CC)c1NC(=O)C(=O)CC(=O)c1sc(-c2cccnc2)nc1C
inactive: [1] > 100 µM | [2] > 100 µM | [3] > 100 µM | [4] 54.3 µM | [5] > 100 µM | [6] > 100 µM | [7] > 100 µM | [8] > 100 µM | [9] > 100 µM | [11] > 100 µM | [12] > 100 µM | [13] > 100 µM | [14] > 100 µM | [15] > 100 µM | [16] > 100 µM | [17] > 100 µM | [20] > 100 µM | [18] > 10 µM | [19] > 100 µM

CC12C(=O)OC(=O)C1(C)C1C=CC2O1 (configuration not stated)
inactive: [1] > 100 µM | [2] > 100 µM | [3] > 100 µM | [4] 62.8 µM | [5] > 100 µM | [6] > 100 µM | [7] > 100 µM | [8] > 100 µM | [9] > 100 µM | [11] > 100 µM | [12] 37.8 µM | [13] > 100 µM | [14] > 100 µM | [15] > 100 µM | [16] > 100 µM | [17] 59.7 µM | [20] 30.3 µM | [18] > 100 µM | [19] 40.6 µM

COc1ccc(NC(C)=O)cc1N1C(=O)/C(=C\c2cc(OC)c(OC)c(OC)c2)S(=O)(=O)C1c1ccccc1 (configuration not stated)
inactive: [1] 46.7 µM | [2] 59.4 µM | [3] 50.8 µM | [4] 55 µM | [5] 98.4 µM | [6] 61.7 µM | [7] 23.5 µM | [8] 47.2 µM | [9] 58.9 µM | [10] 78.2 µM | [11] > 100 µM | [12] > 100 µM | [13] 50.4 µM | [14] 72.9 µM | [15] 39.3 µM | [16] 19.3 µM | [20] 60.3 µM | [18] 33 µM | [19] 74.6 µM

CC(C)(C)c1cc(Cc2ccc(S(C)(=O)=O)cc2)c(O)c(C(C)(C)C)c1
inactive: [1] 16.4 µM | [2] 14.7 µM | [3] 15.3 µM | [4] 13.2 µM | [5] 14.9 µM | [6] 11.7 µM | [7] 14.4 µM | [8] 14.7 µM | [9] 16.8 µM | [10] 16.2 µM | [11] 16.7 µM | [12] 15.5 µM | [13] 17.1 µM | [14] 16.1 µM | [15] 18.2 µM | [16] 16.5 µM | [17] 13.2 µM | [18] 13.2 µM | [19] 12.9 µM

O=c1oc2ccc([N+](=O)[O-])cc2cc1-c1csc(-c2ccccc2)n1
inactive: [1] > 100 µM | [2] > 100 µM | [3] > 100 µM | [4] > 100 µM | [5] > 100 µM | [6] > 100 µM | [7] > 100 µM | [8] > 100 µM | [9] > 100 µM | [10] > 100 µM | [11] > 100 µM | [12] > 100 µM | [13] > 100 µM | [14] > 100 µM | [15] > 100 µM | [16] > 100 µM | [17] > 100 µM | [18] > 100 µM | [19] > 100 µM

Nc1c(-c2ccccc2[N+](=O)[O-])nc2ccccn12
inactive: [1] > 100 µM | [2] > 100 µM | [3] > 100 µM | [4] > 100 µM | [5] > 100 µM | [7] > 100 µM | [8] > 100 µM | [9] > 100 µM | [10] > 100 µM | [11] > 100 µM | [13] > 100 µM | [15] > 100 µM | [16] > 100 µM | [17] > 100 µM | [20] > 100 µM | [18] > 100 µM | [19] > 100 µM

COc1ccc2nc3cc([N+](=O)[O-])ccc3c(Nc3ccc(S(=O)(=O)Nc4ncccn4)cc3)c2c1
inactive: [1] 31.7 µM | [2] 45.2 µM | [3] > 100 µM | [4] 99.5 µM | [5] 15 µM | [6] > 100 µM | [7] > 100 µM | [8] 26.5 µM | [9] 61.5 µM | [10] > 64.9 µM | [11] > 43.4 µM | [13] > 76.7 µM | [14] 67 µM | [15] > 85.5 µM | [16] > 100 µM | [17] 40 µM | [20] > 50.4 µM | [18] 6.24 µM | [19] > 100 µM

N=C(N)SCCN1CCCCC1
inactive: [1] 40.6 µM | [2] 28.6 µM | [3] 26.3 µM | [4] > 100 µM | [5] 36.6 µM | [6] 56 µM | [7] 86.1 µM | [8] 29.9 µM | [9] 32.7 µM | [10] 46.5 µM | [11] 2.98 µM | [13] 29.8 µM | [14] 22.3 µM | [15] 28.5 µM | [16] 21.2 µM | [17] 24.4 µM | [20] 22.2 µM | [18] 21 µM | [19] 16.1 µM

O=c1c2cc([N+](=O)[O-])ccc2nc2n1CCCCC2
inactive: [1] > 100 µM | [2] > 100 µM | [3] > 100 µM | [4] > 100 µM | [5] > 100 µM | [6] > 100 µM | [7] > 100 µM | [8] > 100 µM | [9] > 100 µM | [10] > 100 µM | [11] > 100 µM | [13] > 100 µM | [14] > 100 µM | [15] > 100 µM | [16] 14.2 µM | [17] > 100 µM | [20] > 100 µM | [18] > 100 µM | [19] > 100 µM

C/C(=N\NC(=S)Nc1ccc(C(=O)O)cc1)c1ccccn1
inactive: [1] 25.5 µM | [2] 16 µM | [3] 19.7 µM | [4] 40.4 µM | [5] 31.8 µM | [6] 39.1 µM | [7] 21.3 µM | [8] 34.7 µM | [9] 21.6 µM | [10] 30.5 µM | [11] 17.6 µM | [13] 19.2 µM | [14] 17.4 µM | [15] 44 µM | [16] 20.7 µM | [17] 49.9 µM | [20] 13.7 µM | [18] 12.2 µM | [19] 35 µM

c1ccc(C2=C(c3ccccc3)Sc3nnc(CCCCCCCCc4nnc5n4NC(c4ccccc4)=C(c4ccccc4)S5)n3N2)cc1
inactive: [1] 44.1 µM | [2] 48.6 µM | [3] 77.3 µM | [4] 46.7 µM | [6] 34.7 µM | [7] > 100 µM | [8] 31.8 µM | [9] 48.9 µM | [10] > 100 µM | [11] 63 µM | [12] 54.6 µM | [13] > 100 µM | [14] 61 µM | [15] > 100 µM | [16] 17.7 µM | [17] 83 µM | [20] 39.8 µM | [18] 29.9 µM | [19] 50.4 µM
